Test results as given in patent US9150553B2, “Carboxamide compounds and their use as calpain inhibitors” (AbbVie Deutschland GmbH & Co. KG, priority 2007, dated 2015).

Assays:
Format in all cases: biochemical
[1] = target: T1, calpain-I isolated from human erythrocytes (Homo sapiens, UniProt P07384); test: Calpain I enzyme inhibition, kinetic fluorescence assay; settings: apparent Ki from IC50 by Cheng-Prussoff; pH 7.3, room temperature
T1 construct: calpain-I—isolated from human erythrocytes; purchased Calbiochem 208713; host or cells: human erythrocytes (native tissue isolate)
T1 sequence (P07384 1-714): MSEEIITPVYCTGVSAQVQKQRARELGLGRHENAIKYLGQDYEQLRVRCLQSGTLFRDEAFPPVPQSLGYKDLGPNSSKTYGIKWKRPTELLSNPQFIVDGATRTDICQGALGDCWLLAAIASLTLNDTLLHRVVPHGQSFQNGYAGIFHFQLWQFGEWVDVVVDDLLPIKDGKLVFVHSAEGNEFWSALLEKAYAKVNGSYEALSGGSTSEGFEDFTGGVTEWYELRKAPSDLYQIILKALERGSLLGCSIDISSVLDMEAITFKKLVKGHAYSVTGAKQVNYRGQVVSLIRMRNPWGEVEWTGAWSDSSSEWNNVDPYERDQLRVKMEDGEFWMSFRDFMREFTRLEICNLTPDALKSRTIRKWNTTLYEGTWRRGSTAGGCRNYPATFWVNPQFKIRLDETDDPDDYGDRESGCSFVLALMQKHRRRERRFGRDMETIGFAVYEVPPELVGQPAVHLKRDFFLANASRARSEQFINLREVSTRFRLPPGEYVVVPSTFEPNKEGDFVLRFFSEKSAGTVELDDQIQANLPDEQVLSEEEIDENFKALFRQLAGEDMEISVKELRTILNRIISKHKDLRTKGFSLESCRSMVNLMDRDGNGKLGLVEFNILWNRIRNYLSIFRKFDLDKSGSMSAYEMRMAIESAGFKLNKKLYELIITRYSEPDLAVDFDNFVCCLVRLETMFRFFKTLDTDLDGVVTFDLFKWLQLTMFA
T1 sequence (P04632 1-268 partner): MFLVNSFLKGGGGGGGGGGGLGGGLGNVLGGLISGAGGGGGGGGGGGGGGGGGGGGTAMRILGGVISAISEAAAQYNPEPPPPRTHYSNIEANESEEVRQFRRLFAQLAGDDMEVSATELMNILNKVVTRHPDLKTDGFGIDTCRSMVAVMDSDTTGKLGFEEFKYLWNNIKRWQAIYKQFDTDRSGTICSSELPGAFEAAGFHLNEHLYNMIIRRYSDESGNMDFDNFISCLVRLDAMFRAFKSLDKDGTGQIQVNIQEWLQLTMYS
Protocol: The following solutions and buffers were employed: • HBS (for 40 ml): 800 μl 1M HEPES; 2.16 ml 100 mM KCl; 4.8 ml 1M NaCl; 3.59 ml 5% glucose; 60 μl 1M MgSO4; 400 μl 100 mM Na pyruvate, 28.19 ml water; pH 7.2-7.5. • lysis buffer (for 20 ml): 400 μl 1M Tris pH 8.2; 2.74 ml 1M NaCl; 520 μl 0.5M EDTA; 2 ml 10% triton X-100; 0.8 ml (=1:25) CompletePlus (1 tablet/2 ml H2O); 200 μl 100 mM Pefabloc; 13.34 ml water, pH 8.2. • TBST (10×) (for 1I): 100 mM Tris (12.1 g); 1.5M NaCl (87 g); 1% Tween 20 (10 g), adjusted to pH 8. I. Enzyme Inhibition In Vitro: • Testing for blockade of the corresponding enzymic activities was carried out by means of kinetic fluorescence assays (excitation 390 nm, emission 460 nm). • Apparent Ki values were calculated from the experimentally determined IC50 values by the Cheng-Prussoff relation assuming a reversible competitive enzyme inhibition. The Km values of the substrates used under the assay conditions indicated above were: 90 μM (Z-Phe-Arg-AMC, cathepsin B), 10 μM (Z-Gly-Pro-Arg-AMC, cathepsin K), 2 μM (Z-Phe-Arg-AMC, cathepsin L), and 30 μM (Z-Val-Val-Arg-AMC, cathepsin S). • The indicated Ki values are averages of the inhibition constants calculated on the basis of 2 to 4 independent dose-effect plots. • The following assays were used: • 1. Calpain I: • 20 nM calpain-I—isolated from human erythrocytes (Calbiochem #208713), 100 μM Suc-Leu-Tyr-AMC (Bachem #I-1355) as substrate in buffer with 62 mM imidazole, 0.3 mM CaCl2, 0.10% CHAPS, 0.05% BSA, 1 mM DTT at pH 7.3 and room temperature. • 2. Cathepsin B: • 0.25 nM cathepsin B—isolated from human liver (Calbiochem #219362), 100 μM Z-Phe-Arg-AMC (Bachem #I-1160) as substrate 50 mM MES, 2 mM EDTA, 0.05% Brij 35, 2.5 mM L-cysteine, pH 6.0, room temperature. • 3. Cathepsin K: • 3 nM cathepsin K—activated from recombinant human procathepsin K from E. coli (Calbiochem #342001), 10 μM Z-Gly-Pro-Arg-AMC (Biomol #P-142) as substrate in 50 mM MES, 2 mM EDTA, 0.05% Brij 35, 2.5 mM L-cysteine, pH 6.0, room temperature. • 4. Cathepsin L: • 1 nM cathepsin L—isolated from human liver (Calbiochem #219402), 2 μM Z-Phe-Arg-AMC (Bachem #I-1160) as substrate in 50 mM MES, 2 mM EDTA, 0.05% Brij 35, 2.5 mM L-cysteine, pH 6.0, room temperature. • 5. Cathepsin S: • 0.5 nM recombinant human cathepsin S from E. coli (Calbiochem #219343), 20 μM Z-Val-Val-Arg-AMC (Bachem #I-1540) as substrate in 50 mM MES, 2 mM EDTA, 0.05% Brij 35, 2.5 mM L-cysteine, pH 6.0, room temperature. • The results of the in vitro determination are indicated in Table 2. The following abbreviations are used in Table 2: • The “Calpain activity” column, ++ stands for a calpain Ki (Ki(calpain)) of ≦40 nM, + means: 40 nM<Ki(Calpain)≦100 nM, 0 means 100 nM<Ki(Calpain)≦1 μM, − means 1 μM<Ki(Calpain)≦10 μM, −− means Ki(Calpain)>10 μM. • The “Sel. cat. B” column indicates the Ki(cathepsin B)/Ki(calpain) ratio. In this connection, ++ means a Ki(cathepsin B)/Ki(calpain) ratio of ≧30 and + means≦10≦Ki(cathepsin B)/Ki(calpain)<30. • The “Sel. cat. K” column indicates the Ki(cathepsin K)/Ki(calpain) ratio. In this connection, ++ means a Ki(cathepsin K)/Ki(calpain) ratio of ≧30 and + means 10≦Ki(cathepsin K)/Ki(calpain)<30. • The “Sel. cat. L” column indicates the Ki(cathepsin L)/Ki(calpain) ratio. In this connection, ++ means a Ki(cathepsin L)/Ki(calpain) ratio of ≧50 and + means 30≦Ki(cathepsin L)/Ki(calpain)<50. • The “Sel. cat. S” column indicates the Ki(cathepsin S)/Ki(calpain) ratio. […]

[2] = target: T2, cathepsin B isolated from human liver (Homo sapiens, UniProt P07858); test: Cathepsin B enzyme inhibition, kinetic fluorescence assay; settings: selectivity ratio
T2 construct: cathepsin B—isolated from human liver; purchased Calbiochem 219362; host or cells: human liver (native tissue isolate)
Protocol: (§1) The following solutions and buffers were employed: • HBS (for 40 ml): 800 μl 1M HEPES; 2.16 ml 100 mM KCl; 4.8 ml 1M NaCl; 3.59 ml 5% glucose; 60 μl 1M MgSO4; 400 μl 100 mM Na pyruvate, 28.19 ml water; pH 7.2-7.5. • lysis buffer (for 20 ml): 400 μl 1M Tris pH 8.2; 2.74 ml 1M NaCl; 520 μl 0.5M EDTA; 2 ml 10% triton X-100; 0.8 ml (=1:25) CompletePlus (1 tablet/2 ml H2O); 200 μl 100 mM Pefabloc; 13.34 ml water, pH 8.2. • TBST (10×) (for 1I): 100 mM Tris (12.1 g); 1.5M NaCl (87 g); 1% Tween 20 (10 g), adjusted to pH 8. I. Enzyme Inhibition In Vitro: • Testing for blockade of the corresponding enzymic activities was carried out by means of kinetic fluorescence assays (excitation 390 nm, emission 460 nm). • Apparent Ki values were calculated from the experimentally determined IC50 values by the Cheng-Prussoff relation assuming a reversible competitive enzyme inhibition. The Km values of the substrates used under the assay conditions indicated above were: 90 μM (Z-Phe-Arg-AMC, cathepsin B), 10 μM (Z-Gly-Pro-Arg-AMC, cathepsin K), 2 μM (Z-Phe-Arg-AMC, cathepsin L), and 30 μM (Z-Val-Val-Arg-AMC, cathepsin S). • The indicated Ki values are averages of the inhibition constants calculated on the basis of 2 to 4 independent dose-effect plots. • The following assays were used: • 1. Calpain I: • 20 nM calpain-I—isolated from human erythrocytes (Calbiochem #208713), 100 μM Suc-Leu-Tyr-AMC (Bachem #I-1355) as substrate in buffer with 62 mM imidazole, 0.3 mM CaCl2, 0.10% CHAPS, 0.05% BSA, 1 mM DTT at pH 7.3 and room temperature. • 2. Cathepsin B: • 0.25 nM cathepsin B—isolated from human liver (Calbiochem #219362), 100 μM Z-Phe-Arg-AMC (Bachem #I-1160) as substrate 50 mM MES, 2 mM EDTA, 0.05% Brij 35, 2.5 mM L-cysteine, pH 6.0, room temperature. • 3. Cathepsin K: • 3 nM cathepsin K—activated from recombinant human procathepsin K from E. coli (Calbiochem #342001), 10 μM Z-Gly-Pro-Arg-AMC (Biomol #P-142) as substrate in 50 mM MES, 2 mM EDTA, 0.05% Brij 35, 2.5 mM L-cysteine, pH 6.0, room temperature. • 4. […]

[3] = target: T3, cathepsin K activated from recombinant human procathepsin K (Homo sapiens, UniProt P43235); test: Cathepsin K enzyme inhibition, kinetic fluorescence assay; settings: selectivity ratio
T3 construct: purchased Calbiochem 342001; host or cells: E. coli
T3 sequence (P43235 115-329): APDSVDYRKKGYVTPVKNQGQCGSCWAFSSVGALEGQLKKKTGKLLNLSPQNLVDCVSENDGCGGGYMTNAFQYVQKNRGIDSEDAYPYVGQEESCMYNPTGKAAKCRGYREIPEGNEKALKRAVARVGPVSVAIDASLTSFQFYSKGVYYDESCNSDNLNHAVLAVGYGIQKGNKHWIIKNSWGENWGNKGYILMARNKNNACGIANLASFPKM
Protocol: as §1

[4] = target: T4, cathepsin L isolated from human liver (Homo sapiens, UniProt P07711); test: Cathepsin L enzyme inhibition, kinetic fluorescence assay; settings: selectivity ratio
T4 construct: cathepsin L—isolated from human liver; purchased Calbiochem 219402; host or cells: human liver (native tissue isolate)
Protocol: as §1

[5] = target: T5, recombinant human cathepsin S (Homo sapiens, UniProt P25774); test: Cathepsin S enzyme inhibition, kinetic fluorescence assay; settings: selectivity ratio
T5 construct: purchased Calbiochem 219343; host or cells: E. coli
Protocol: as §1

T4 sequence (P07711 114-333): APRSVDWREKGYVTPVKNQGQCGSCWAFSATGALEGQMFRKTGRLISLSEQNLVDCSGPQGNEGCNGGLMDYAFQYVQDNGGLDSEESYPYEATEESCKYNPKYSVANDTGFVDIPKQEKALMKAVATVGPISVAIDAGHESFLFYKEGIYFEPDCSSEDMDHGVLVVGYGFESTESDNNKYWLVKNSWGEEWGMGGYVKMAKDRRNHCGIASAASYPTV
T5 sequence (P25774 115-331): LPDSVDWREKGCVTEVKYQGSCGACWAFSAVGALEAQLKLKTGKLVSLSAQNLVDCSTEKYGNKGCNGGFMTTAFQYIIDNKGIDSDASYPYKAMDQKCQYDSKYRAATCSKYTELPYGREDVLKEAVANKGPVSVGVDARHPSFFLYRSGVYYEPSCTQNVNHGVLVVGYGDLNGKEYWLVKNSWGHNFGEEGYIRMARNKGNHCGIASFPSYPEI

Row | SMILES | Ki [1] [nM] | Sel cat. B: Ki(cathepsin B)/Ki(calpain) ratio [2] | Sel cat. K: Ki(cathepsin K)/Ki(calpain) ratio [3] | Sel cat. L: Ki(cathepsin L)/Ki(calpain) ratio [4] | Sel cat. S: Ki(cathepsin S)/Ki(calpain) ratio [5]
1 | NC(=O)C1(C(Cc2ccc(F)cc2)NC(=O)c2cccnc2-n2ccc(-c3ccc(Cl)cc3Cl)n2)OCCO1 (stereo not shown) [Compound I-1, N-[1-[2-(Aminocarbonyl)-1,3-dioxolan-2-yl]-2-(4-fluorophenyl)ethyl]-2-[3-(2,4-dichlorophenyl)-1H-pyrazol-1-yl]nicotinamide] | > 10000 | – | – | – | –
2 | NC(=O)C(=O)C(Cc1ccccc1)NC(=O)c1cccnc1-n1ccc(-c2cccc(C(F)(F)F)c2)n1 (stereo not shown) [Compound II-2, N-(3-Amino-1-benzyl-2,3-dioxopropyl)-2-{3-[3-(trifluoromethyl)phenyl]-1H-pyrazol-1-yl}nicotinamide] | ≤ 40 | + (+ means≦10≦Ki(cathepsin B)/Ki(calpain)<30) | ++ (++ means a Ki(cathepsin K)/Ki(calpain) ratio of ≧30) | ++ (++ means a Ki(cathepsin L)/Ki(calpain) ratio of ≧50) | ++ (++ means a Ki(cathepsin S)/Ki(calpain) ratio of ≧100)
3 | NC(=O)C(=O)C(Cc1ccc(F)cc1)NC(=O)c1cccnc1-n1ccc(-c2ccc(Cl)cc2Cl)n1 (stereo not shown) [II-1, N-[3-amino-1-(4-fluorobenzyl)-2,3-dioxopropyl]-2-[3-(2,4-dichlorophenyl)-1H-pyrazol-1-yl]nicotinamide] | 40 to 100 | ++ (++ means a Ki(cathepsin B)/Ki(calpain) ratio of ≧30) | ++ (++ means a Ki(cathepsin K)/Ki(calpain) ratio of ≧30) | ++ (++ means a Ki(cathepsin L)/Ki(calpain) ratio of ≧50) | ++ (++ means a Ki(cathepsin S)/Ki(calpain) ratio of ≧100)
4 | NC(=O)C(=O)C(Cc1ccccc1)NC(=O)c1cccnc1-n1ccc(-c2ccc(F)cc2)n1 (stereo not shown) [II-3, N-(3-amino-1-benzyl-2,3-dioxopropyl)-2-[3-(4-fluorophenyl)-1H-pyrazol-1-yl]nicotinamide] | 40 to 100 | + (+ means≦10≦Ki(cathepsin B)/Ki(calpain)<30) | + (+ means 10≦Ki(cathepsin K)/Ki(calpain)<30) | ++ (++ means a Ki(cathepsin L)/Ki(calpain) ratio of ≧50) | ++ (++ means a Ki(cathepsin S)/Ki(calpain) ratio of ≧100)
